# Data published in ChEMBL document CHEMBL4190403, “Design, synthesis, and biological evaluation of pyrazole derivatives containing acetamide bond as potential BRAFV600E inhibitors” (Bioorg Med Chem Lett, 2018).
# What was measured:
# Format in all cases: functional
# A-375 [1] = assay: Induction of apoptosis in human A375 cells assessed as necrotic cells at 1 uM after 24 hrs by Annexin V-FITC/propidium iodide staining based flow cytometry (reference value: 0.635 to 3.12%)
# A-375 [2] = assay: Cell cycle arrest in human A375 cells assessed as accumulation at G1 phase at 10 uM after 24 hrs by propidium iodide staining-based flow cytometry (reference value: 59.02 to 60.22%)
# A-375 [3] = assay: Cell cycle arrest in human A375 cells assessed as accumulation at S phase at 3 uM after 24 hrs by propidium iodide staining-based flow cytometry (reference value: 20.08 to 31.09%)
# A-375 [4] = assay: Induction of apoptosis in human A375 cells assessed as early apoptotic cells at 3 uM after 36 hrs by Annexin V-FITC/propidium iodide staining based flow cytometry (reference value: 1.22 to 1.64%)
# A-375 [5] = assay: Induction of apoptosis in human A375 cells assessed as early apoptotic cells at 10 uM after 24 hrs by Annexin V-FITC/propidium iodide staining based flow cytometry (reference value: 1.22 to 1.64%)
# A-375 [6] = assay: Cell cycle arrest in human A375 cells assessed as accumulation at G2/M phase at 10 uM after 24 hrs by propidium iodide staining-based flow cytometry (reference value: 7.91 to 21.07%)
# A-375 [7] = assay: Cell cycle arrest in human A375 cells assessed as accumulation at G2/M phase at 3 uM after 24 hrs by propidium iodide staining-based flow cytometry (reference value: 7.91 to 21.07%)
# A-375 [8] = assay: Induction of apoptosis in human A375 cells assessed as necrotic cells at 3 uM after 12 hrs by Annexin V-FITC/propidium iodide staining based flow cytometry (reference value: 0.635 to 3.12%)
# A-375 [9] = assay: Cell cycle arrest in human A375 cells assessed as accumulation at G1 phase at 3 uM after 24 hrs by propidium iodide staining-based flow cytometry (reference value: 59.02 to 60.22%)
# A-375 [10] = assay: Induction of apoptosis in human A375 cells assessed as late apoptotic cells at 1 uM after 24 hrs by Annexin V-FITC/propidium iodide staining based flow cytometry (reference value: 3.80 to 4.61%)
# A-375 [11] = assay: Induction of apoptosis in human A375 cells assessed as late apoptotic cells at 3 uM after 36 hrs by Annexin V-FITC/propidium iodide staining based flow cytometry (reference value: 3.80 to 4.61%)
smiles,measurement,setting,value
COc1ccc(-n2cc(NC(=O)Cn3ccc(-c4cccc(Cl)c4)n3)cn2)cc1,Activity,A-375 [1],4.51%
same,Activity,A-375 [2],39.32%
same,Activity,A-375 [3],43.96 - 45.74%
same,Activity,A-375 [4],1.95%
same,Activity,A-375 [5],1.81%
same,Activity,A-375 [6],10.95%
same,Activity,A-375 [7],9.69 - 9.82%
same,Activity,A-375 [8],9.77%
same,Activity,A-375 [9],40.19 - 43.48%
same,Activity,A-375 [10],14.1%
same,Activity,A-375 [11],59.7%
